# Reference: the supplement of paper PMC5844555
# How the values were obtained:
# Assay in all cases: 3' UTR reporter interaction score (median-centred robust z-score of log2 firefly/Renilla activity); higher = less repression of the 3' UTR reporter
# Details in all cases: HEK293T; 48 h
# HRAS = test system: HRAS
# How it was run: (§1)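 HEK293T cells (10,000/well, 96-well plates) were co-transfected using DharmaFECT Duo with 100 ng firefly luc2P reporter carrying the gene's 3' UTR, 20 ng Renilla pRL-TK control and 2.5 pmol miRNA mimic. Dual-luciferase activities were read 48 h post-transfection. The interaction score is the log-transformed firefly/Renilla ratio as a per-plate robust z-score (median, median absolute deviation), median-centred per miRNA and averaged over at least two independent screens; more negative indicates interaction.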
# RB1 = test system: RB1
# How it was run: as §1
# MYT1L = test system: MYT1L
# How it was run: as §1
# BRCA2 = test system: BRCA2
# How it was run: as §1
# ZEB2 = test system: ZEB2
# How it was run: as §1
# TP53 = test system: TP53
# How it was run: as §1
# MYC = test system: MYC
# How it was run: as §1
# PHF6 = test system: PHF6
# How it was run: as §1
# FBXW7 = test system: FBXW7
# How it was run: as §1
# EZH2 = test system: EZH2
# How it was run: as §1
# NOTCH1 = test system: NOTCH1
# How it was run: as §1
# PHOX2B = test system: PHOX2B
# How it was run: as §1
# MYB = test system: MYB
# How it was run: as §1
# MYCN = test system: MYCN
# How it was run: as §1
Sequence,3' UTR reporter interaction score (HRAS),3' UTR reporter interaction score (RB1),3' UTR reporter interaction score (MYT1L),3' UTR reporter interaction score (BRCA2),3' UTR reporter interaction score (ZEB2),3' UTR reporter interaction score (TP53),3' UTR reporter interaction score (MYC),3' UTR reporter interaction score (PHF6),3' UTR reporter interaction score (FBXW7),3' UTR reporter interaction score (EZH2),3' UTR reporter interaction score (NOTCH1),3' UTR reporter interaction score (PHOX2B),3' UTR reporter interaction score (MYB),3' UTR reporter interaction score (MYCN)
GCGACCCAUACUUGGUUUCAG,-0.348,-1.26,-5.03e-17,0.00941,-0.392,-0.0561,-0.469,-1.74,0.104,1.08,0.351,-1.24,0.445,0.527
GCGAGGACCCCUCGGGGUCUGAC,0.0816,0.707,-0.47,0.357,-0.584,0.0903,-0.466,-0.251,0.437,-0.18,-0.131,0.436,0.547,-0.654
GCGUGCGCCGGCCGGCCGCC,-0.392,-0.23,-0.142,0.432,-0.647,0.961,-1.82,1.71,0.516,0.589,-0.272,0.436,-0.399,-1.25
GCUAGUCCUGACUCAGCCAGU,-0.409,0.4,0.167,4.86e-17,0.364,-0.219,-0.713,-0.0579,0.368,-0.186,-0.242,0.384,0.624,0.0989
GCUGCGCUUGGAUUUCGUCCCC,-0.573,1.16,0.46,-0.029,0.715,-0.861,0.388,0.794,-0.688,-0.09,2.01,-1.97,0.616,0.248
GCUGGGCAGGGCUUCUGAGCUCCUU,-0.298,0.659,-0.4,-0.0026,0.0169,-0.0785,-0.481,0.53,-0.37,-0.0238,-0.244,1.06,0.00877,0.117
GGAGAAAUUAUCCUUGGUGUGU,-0.545,0.166,0.261,-0.364,-0.311,0.00656,-1.2,0.937,0.978,-0.15,0.146,1.16,-0.159,-0.523
GGCGGAGGGAAGUAGGUCCGUUGGU,-0.537,0.267,0.0209,0.242,0.059,-0.152,-0.0304,0.0679,-0.817,0.332,0.067,-1.42,0.0558,-0.331
GGCUGGCUCGCGAUGUCUGUUU,-0.0445,0.183,1.15,-2.13,0.922,0.4,-0.237,0.0685,0.4,-0.172,-0.649,0.166,-2.48,0.967
GGGCGCCUGUGAUCCCAAC,-0.201,-0.433,0.181,-0.242,-0.0882,0.186,-0.484,-0.831,0.114,0.0894,-0.381,0.588,0.137,-0.708
GGUAGAUUCUCCUUCUAUGAG,-0.338,-0.935,1.11,-0.394,0.717,-0.00155,0.11,0.87,1.14,-0.351,-0.435,0.393,0.783,0.767
GUCAACACUUGCUGGUUUCCUC,-1.53,0.731,-2.13,1.05,-0.604,-0.391,1.11,0.545,1.04,1.25,-0.696,-0.934,-0.366,-0.83
GUCAUACACGGCUCUCCUCUCU,0.779,-0.0565,-0.904,0.502,0.639,-0.0395,0.275,-2.04,-0.585,-0.733,0.867,-0.585,0.607,-1.89
GUCCAGUUUUCCCAGGAAUCCCUU,-1.3,-0.0539,0.164,0.301,-0.186,-0.611,-0.0253,0.802,-0.33,0.32,0.816,-0.361,0.98,-0.357
GUCCCUCUCCAAAUGUGUCUUG,0.01,-0.267,-0.216,0.364,-3.03,0.415,1.7,-1.08,-1.89,0.871,-0.392,-0.224,1.83,1.77
GUCCGCUCGGCGGUGGCCCA,0.202,-0.471,0.878,-0.044,0.167,0.883,-0.572,0.23,-0.455,0.465,0.197,0.167,0.218,-0.651
GUGAGUCUCUAAGAAAAGAGGA,-1.03,-0.543,0.22,0.654,0.201,1.06,-0.241,0.947,1.15,-0.0137,0.287,-1.54,-1.86,-0.777
GUGCAUUGCUGUUGCAUUGCA,-0.237,-0.687,0.516,-0.52,-2.34,0.631,-1.33,-0.271,-0.35,0.0384,0.367,0.67,-2.09,0.79
GUGCAUUGUAGUUGCAUUG,-0.432,-0.339,-0.399,-0.383,-0.884,0.444,-0.88,-0.0198,0.387,-0.326,0.471,1.4,0.56,-0.218
